The numbers were not newly measured in paper PMC9395504 (Investigational New Drugs, 2022), which cites them from elsewhere.

Data set [1] has as its system TP53-WT melanoma cell lines. The arrangement: method as in PMID 24810962. The note with it: combined with inhibitors of PI3K or MAPK signaling pathway; cited from earlier work.
For data set [2], the system named is TP53-WT cancer xenograft models. The note with it: daily oral administration; cited from earlier work.
The next data set deals with p53 pathway. Conditions: cited from earlier work.

With `CC(C)[C@@H](CS(=O)(=O)C(C)C)N1C(=O)[C@@](C)(CC(=O)O)C[C@H](c2cccc(Cl)c2)[C@H]1c1ccc(Cl)cc1` [AMG 232], the “interaction in cell death” value in data set [1] is reported as “synergy”. For the same compound, the “effective doses, dose-dependent antitumor activity” value in data set [2] was 9.1 to 78 mg/kg. In the data set with p53 pathway, the “doses with more consistent and pronounced effect on the p53 pathway” value was 25 to 100 mg/kg. Also, the “lowest dose affecting the p53 pathway (upregulation of p21 and MIC-1)” value in the data set on p53 pathway (doses as low as) was 5 mg/kg.
